Bounds are passed on as bounds.

One experiment has as its target T1, PI4KIIIA (Homo sapiens, UniProt P42356).
T1 construct: made in house; host or cells: COS-7 cells, transient transfection, anti-HA immunoprecipitate on protein G Sepharose beads
Kind of experiment: PI4KIIIA kinase assay. In kind it is biochemical. How it is done:
In the assays described here, p110α-p85 complex and p110γ were acquired from Millipore. Assays were performed with Lα-phosphatidylinositol (Avanti) as described in Knight et al. Nat Protoc. 2007; 2 (10):2459-66. Inhibitor series were prepared 10% DMSO as 5× stocks for the assay. Assays of HsVps34 were performed as described in Knight et al, except that the final assay buffer composition used was changed to 20 mM HEPES 7.5, 100 mM NaCl, 3 mM MgCl, 1 mg/mL PI and 44 nM hvps34 was used in the assay. […] COS-7 cells were cultured in 10 cm dishes and transfected at 70% confluence with 10 μg of plasmid DNA (HA-tagged bovine PI4KIIIβ, HA-tagged human PI4KIIIα) using Lipofectamine 2000 and 5 ml Opti-MEM following the manufacturer's instructions. After 5 hours the transfection medium was replaced with 10 ml complete DMEM. 36 hrs post transfection, cells were washed once with 5 ml PBS (pH 7.4) and lysed in 1 ml of lysis buffer (1) on ice. Lysates were collected by scraping and after 15 min they were centrifuged at 13,000 rpm for 10 min. To the lysates was added 200 μl of protein G Sepharose 4 fast flow beads that were prewashed with PBS and lysis buffer and 2 μg of anti-HA antibody. The tubes were then incubated overnight at 4 degrees C. in a tube rotator. The Sepharose beads in the lysate were washed twice with 150 mM NaCl in RIPA buffer, twice with RIPA buffer and once with kinase buffer (50 mM Tris/HCl, pH 7.5, 20 mM MgCl2, 1 mM EGTA, 1 mM PtdIns, 0.4% Triton X-100, 0.5 mg/mL BSA) and finally the beads were resuspended in 200 μL kinase buffer. Kinase reactions were run in a mixture of 45 μL of PI buffer (1 mM PI in kinase buffer), 10 μL of immunoprecipitated beads, 2 µL of inhibitors (dissolved and diluted in DMSO) or DMSO and 5 μL of [γ-^32P]-ATP (1 mM and 2 μCi/tube). The immunoprecipitates in PI buffer were pre-incubated with the drugs for 20 min prior the initiation of kinase reaction by adding ATP and the reactions were carried out for 30 min in 15 ml polypropolyne tubes. […] Samples were counted in a scintillation beta counter after adding 5 ml of Instafluor (Perkin-Elmer). […]

A further experiment concerns the target T2, PI3K p110g (Homo sapiens, UniProt P48736).
T2 construct: purchased Millipore
The experiment in a line: PI3K p110g kinase assay. In kind it is biochemical.

In a further experiment the target is T3, PI3KC2G (Homo sapiens, UniProt O75747).
T3 sequence (O75747 1-1486): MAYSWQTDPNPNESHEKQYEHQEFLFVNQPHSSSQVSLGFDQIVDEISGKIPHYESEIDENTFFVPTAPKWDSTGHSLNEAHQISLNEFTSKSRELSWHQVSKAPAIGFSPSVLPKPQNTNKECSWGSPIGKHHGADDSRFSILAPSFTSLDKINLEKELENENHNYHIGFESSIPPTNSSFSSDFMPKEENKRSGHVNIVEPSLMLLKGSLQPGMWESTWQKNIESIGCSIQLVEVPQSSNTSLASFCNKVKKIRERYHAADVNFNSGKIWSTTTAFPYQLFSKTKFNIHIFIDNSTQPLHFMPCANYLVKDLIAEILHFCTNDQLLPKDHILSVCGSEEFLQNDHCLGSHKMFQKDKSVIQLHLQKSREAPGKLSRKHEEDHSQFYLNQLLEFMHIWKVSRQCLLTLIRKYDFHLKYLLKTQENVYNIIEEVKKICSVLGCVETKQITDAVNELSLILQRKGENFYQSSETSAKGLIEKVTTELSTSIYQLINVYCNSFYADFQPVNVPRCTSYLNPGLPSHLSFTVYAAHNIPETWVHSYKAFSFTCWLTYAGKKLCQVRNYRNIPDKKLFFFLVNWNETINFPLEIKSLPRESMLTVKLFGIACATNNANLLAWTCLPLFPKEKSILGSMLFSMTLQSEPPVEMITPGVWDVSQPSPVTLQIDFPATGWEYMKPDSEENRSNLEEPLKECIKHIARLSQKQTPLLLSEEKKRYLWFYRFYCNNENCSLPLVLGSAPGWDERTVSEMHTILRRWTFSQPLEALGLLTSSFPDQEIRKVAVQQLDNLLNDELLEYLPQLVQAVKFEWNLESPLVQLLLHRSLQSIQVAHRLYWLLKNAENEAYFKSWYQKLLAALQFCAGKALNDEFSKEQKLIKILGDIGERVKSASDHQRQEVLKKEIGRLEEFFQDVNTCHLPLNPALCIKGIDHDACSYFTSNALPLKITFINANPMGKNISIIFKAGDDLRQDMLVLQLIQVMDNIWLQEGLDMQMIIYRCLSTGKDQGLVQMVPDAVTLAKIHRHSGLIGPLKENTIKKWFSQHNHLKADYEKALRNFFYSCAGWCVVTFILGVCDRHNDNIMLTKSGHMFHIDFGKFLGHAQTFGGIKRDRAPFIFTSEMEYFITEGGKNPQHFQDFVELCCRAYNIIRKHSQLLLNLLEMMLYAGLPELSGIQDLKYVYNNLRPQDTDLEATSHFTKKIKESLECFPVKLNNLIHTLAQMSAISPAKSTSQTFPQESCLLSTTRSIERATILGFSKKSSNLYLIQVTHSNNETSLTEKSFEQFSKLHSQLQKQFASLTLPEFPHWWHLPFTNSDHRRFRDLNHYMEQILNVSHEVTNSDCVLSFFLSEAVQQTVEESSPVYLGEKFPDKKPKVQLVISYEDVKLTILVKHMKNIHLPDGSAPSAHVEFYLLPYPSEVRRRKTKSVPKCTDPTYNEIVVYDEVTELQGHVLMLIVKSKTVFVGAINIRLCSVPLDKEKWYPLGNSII
The experiment in a line: PI3KC2G kinase assay. It counts as biochemical.

Another experiment deals with HCV genotype 2a. The experiment in a line: microbe, parasite or virus in culture. It counts as cell-based. The following applies: Hepatitis C virus, Huh7.5, read-out: HCV2a EC50.
In the next experiment the test system is HRV. Kind of experiment: Rhinovirus antiviral assay. In kind it is cell-based. As to conditions: Human rhinovirus sp.

T2 sequence (P48736 whole entry): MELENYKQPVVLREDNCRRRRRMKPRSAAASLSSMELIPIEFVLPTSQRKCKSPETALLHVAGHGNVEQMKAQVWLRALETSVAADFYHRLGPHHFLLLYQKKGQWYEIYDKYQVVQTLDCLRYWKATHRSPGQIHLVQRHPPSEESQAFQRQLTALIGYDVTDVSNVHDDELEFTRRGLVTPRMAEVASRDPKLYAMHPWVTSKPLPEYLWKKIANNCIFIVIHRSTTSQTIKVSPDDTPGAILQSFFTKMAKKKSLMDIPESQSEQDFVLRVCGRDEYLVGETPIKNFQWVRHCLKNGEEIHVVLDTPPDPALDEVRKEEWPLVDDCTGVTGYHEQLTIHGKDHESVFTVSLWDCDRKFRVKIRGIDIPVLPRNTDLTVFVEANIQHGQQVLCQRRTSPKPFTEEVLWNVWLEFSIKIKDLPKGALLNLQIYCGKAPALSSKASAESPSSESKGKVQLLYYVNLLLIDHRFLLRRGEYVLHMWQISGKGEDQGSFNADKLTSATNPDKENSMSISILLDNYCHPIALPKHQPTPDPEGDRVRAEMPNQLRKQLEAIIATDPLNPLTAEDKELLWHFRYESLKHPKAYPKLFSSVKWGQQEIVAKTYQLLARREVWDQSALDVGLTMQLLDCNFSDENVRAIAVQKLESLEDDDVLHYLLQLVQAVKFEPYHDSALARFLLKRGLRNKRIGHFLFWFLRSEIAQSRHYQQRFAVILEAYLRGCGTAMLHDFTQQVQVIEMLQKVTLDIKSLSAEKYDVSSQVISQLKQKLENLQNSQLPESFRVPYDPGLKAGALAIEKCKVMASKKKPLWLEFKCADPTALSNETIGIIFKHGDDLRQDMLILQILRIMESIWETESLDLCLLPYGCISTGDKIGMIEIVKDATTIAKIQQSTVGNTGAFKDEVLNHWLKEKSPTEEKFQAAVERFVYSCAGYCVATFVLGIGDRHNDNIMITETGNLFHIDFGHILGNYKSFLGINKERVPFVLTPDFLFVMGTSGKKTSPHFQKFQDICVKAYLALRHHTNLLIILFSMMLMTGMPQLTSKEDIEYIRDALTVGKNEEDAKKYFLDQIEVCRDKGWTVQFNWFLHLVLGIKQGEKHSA
T1 sequence (P42356 whole entry): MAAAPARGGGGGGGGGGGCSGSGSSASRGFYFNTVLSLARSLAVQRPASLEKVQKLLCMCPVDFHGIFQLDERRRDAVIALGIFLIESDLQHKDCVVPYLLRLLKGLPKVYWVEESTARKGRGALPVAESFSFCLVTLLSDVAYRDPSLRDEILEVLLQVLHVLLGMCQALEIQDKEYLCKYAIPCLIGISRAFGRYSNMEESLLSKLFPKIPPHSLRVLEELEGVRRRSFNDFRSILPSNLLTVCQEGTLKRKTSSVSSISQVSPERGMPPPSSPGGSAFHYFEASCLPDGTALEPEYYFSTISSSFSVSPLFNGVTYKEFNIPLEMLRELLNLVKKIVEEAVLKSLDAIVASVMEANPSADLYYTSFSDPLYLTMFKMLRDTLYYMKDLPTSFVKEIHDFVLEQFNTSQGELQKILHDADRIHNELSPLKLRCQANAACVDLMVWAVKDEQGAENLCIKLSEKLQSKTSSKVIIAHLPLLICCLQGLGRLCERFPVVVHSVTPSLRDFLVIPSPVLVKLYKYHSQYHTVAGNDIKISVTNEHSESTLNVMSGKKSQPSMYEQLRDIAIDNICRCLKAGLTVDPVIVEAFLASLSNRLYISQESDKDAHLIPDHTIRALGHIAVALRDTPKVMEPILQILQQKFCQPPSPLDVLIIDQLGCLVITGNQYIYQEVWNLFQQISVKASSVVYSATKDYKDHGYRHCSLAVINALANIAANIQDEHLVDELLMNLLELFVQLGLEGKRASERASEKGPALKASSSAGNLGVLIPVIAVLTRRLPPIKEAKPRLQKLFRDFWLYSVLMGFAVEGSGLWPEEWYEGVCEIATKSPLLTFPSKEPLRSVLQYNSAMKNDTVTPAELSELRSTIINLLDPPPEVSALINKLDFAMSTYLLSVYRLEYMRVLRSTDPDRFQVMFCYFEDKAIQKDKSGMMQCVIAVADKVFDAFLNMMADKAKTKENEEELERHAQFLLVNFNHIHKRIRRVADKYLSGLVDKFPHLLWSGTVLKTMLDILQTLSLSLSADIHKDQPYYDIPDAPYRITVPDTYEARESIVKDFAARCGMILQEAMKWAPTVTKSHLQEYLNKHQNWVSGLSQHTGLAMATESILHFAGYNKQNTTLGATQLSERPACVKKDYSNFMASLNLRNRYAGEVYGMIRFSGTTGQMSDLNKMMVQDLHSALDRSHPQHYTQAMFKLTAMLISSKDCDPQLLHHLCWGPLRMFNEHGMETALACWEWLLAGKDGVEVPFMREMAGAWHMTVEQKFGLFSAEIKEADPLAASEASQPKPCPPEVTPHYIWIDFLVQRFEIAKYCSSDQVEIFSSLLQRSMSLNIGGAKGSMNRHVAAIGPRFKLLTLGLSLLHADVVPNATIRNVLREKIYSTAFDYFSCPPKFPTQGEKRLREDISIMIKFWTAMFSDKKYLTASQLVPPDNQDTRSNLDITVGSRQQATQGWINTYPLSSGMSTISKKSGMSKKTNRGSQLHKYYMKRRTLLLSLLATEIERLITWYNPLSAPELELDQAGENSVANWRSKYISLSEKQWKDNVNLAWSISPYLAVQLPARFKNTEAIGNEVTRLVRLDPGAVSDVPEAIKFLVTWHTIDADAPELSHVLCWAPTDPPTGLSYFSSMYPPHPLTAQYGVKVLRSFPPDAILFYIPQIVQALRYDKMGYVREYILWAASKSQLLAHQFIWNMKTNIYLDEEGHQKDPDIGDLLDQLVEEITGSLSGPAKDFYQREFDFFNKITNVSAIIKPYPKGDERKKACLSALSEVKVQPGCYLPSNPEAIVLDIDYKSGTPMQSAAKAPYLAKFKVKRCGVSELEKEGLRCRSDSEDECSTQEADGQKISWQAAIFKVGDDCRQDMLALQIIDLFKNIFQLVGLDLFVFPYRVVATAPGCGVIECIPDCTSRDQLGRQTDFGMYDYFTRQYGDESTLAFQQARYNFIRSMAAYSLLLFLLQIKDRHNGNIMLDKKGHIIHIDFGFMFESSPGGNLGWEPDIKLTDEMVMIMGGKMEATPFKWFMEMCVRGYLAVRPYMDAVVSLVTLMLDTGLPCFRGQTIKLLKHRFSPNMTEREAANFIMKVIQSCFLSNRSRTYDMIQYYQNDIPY

`COc1ncc(-c2sc(NC(=O)CC3CCOCC3)nc2C)cc1S(=O)(=O)NC1CCCC(O)C1` (centres unmarked) [Compound S-263]: the figures for the half-inhibitory concentration (IC50) against PI4KIIIA, on PI3K p110g and at PI3KC2G were under 0.1 µM, 1 to 10 µM and 0.1 to 1 µM, respectively. Further, the 50% effective concentration (EC50) fell in the range of 0.001 to 0.1 µM in the experiment with HCV genotype 2a and 1 to 10 µM in the experiment with HRV.

For orientation: IC50 means the concentration that gives 50% inhibition. Broadly, the EC50 is the concentration needed to bring the measured effect to its halfway point.
